Numbered stars: 1 amine (or outer) side, 2 acyl side, 3 side chain; on linkers, the order of the positions; unused ones are H or OH. Bridge positions count the residues as written; N and C are the ends. Square brackets hold non-standard residues; d marks the D form. Side chains are listed from the residue outwards. Peptide text beside a SMILES is read from it. I, II: the chains in the order shown. * marks the point of attachment. EuK = O=C(O)CC[C@H](NC(=O)N[C@@H](CCCCN*)C(=O)O)C(=O)O; Pteroyl = Nc1nc2ncc(CNc3ccc(C(=O)*)cc3)nc2c(=O)[nH]1; Dolaproine = CO[C@@H]([C@@H]1CCCN1)[C@@H](C)C(=O)O; Dil = CC[C@H](C)[C@H](NC)[C@@H](CC(=O)O)OC; X3 = O=C1CC([*:2])C(=O)N1CCCCCC(=O)[*:1]; γGlu = O=C(O)[C@H](CCC(=O)[*:2])N[*:1]; PABC = O=C(OCc1ccc(N[*:1])cc1)[*:2]; X1 = C[C@@H](N*)[C@@H](O)c1ccccc1; X2 = O=C(Cc1ccc(CN[*:1])cc1)[*:2]; Cit = NC(=O)NCCC[C@H](N)C(=O)O; NMeV = CN[C@H](C(=O)O)C(C)C; CO = O=C([*:1])[*:2]
What was measured:
[1] = tested on: A549, Hela, SCLC-21H, U-2 OS, T-47D and NCI-H460 tumor cell lines; assay: Inhibition of tumor cell expansion, CCK8 (CB-18G); format: cell-based, human
Description: Cell lines: A549 human lung cancer cells, Hela human cervical cancer cells, SCLC-21H small cell lung cancer cells, U-2 OS human osteosarcoma cells, T-47D human breast cancer cells and NCI-H460 human lung cancer cells
The cells were prepared in advance, digested with trypsin, collected and counted; diluted with a complete cell culture medium, A549 cells, Hela cells, SCLC-21H cells and U-2 OS cells were plated at a density of 2×10^4 cells/ml, and T-47D cells and NCI-H460 cells were plated at a density of 3×10^4 cells/ml in 96-well plates; to each well of the 96-well plates, 100 μl of the diluted cell solution was added; and negative control and blank control wells were set on each plate. The 96-well plates added with the cells were placed in an incubator at 37° C., 5% CO2 for culturing overnight.
The samples were diluted with a culture medium to desired concentrations (see Table 15). […]
(§1) To each well, 15 μl (10% of the liquid volume in a well) of a color developing solution from CCK-8 was added; the plates were incubated at 37° C. for an appropriate time (try to keep the OD value in the range of 1.0-2.0); the covers of the 96-well plates were removed, and the plates were read at 450 nm on a microplate reader (Molecular Devices Spectra MAX Plus). […]

[2] = tested on: KB, PC-9, SPC-A1, CALU-3 and DU145 cell lines (CDX tumor models); assay: Pharmacodynamic study of CB-18G in CDX models; format: in vivo, BALB/c-nude mice; conditions: tail vein injection
Description: CB-18G lyophilized powder was weighed, dissolved with PBS and prepared into a sample mother solution, and the mother solution was diluted with a physiological saline for injection to a sample solution with a working concentration for later use.
Main cell lines: KB human oral epidermoid carcinoma cells, PC-9 human lung cancer cells, SPC-A1 human lung adenocarcinoma cells, CALU-3 human lung adenocarcinoma cells and DU145 human prostate cancer cells
(§2) Model construction: The cells were resuscitated, cultured, collected and counted, and the cell solution was subcutaneously injected into the right flank of BALB/c-nude mice. When the tumor grew and expanded to 80-160 mm^3, grouping and administration were performed, or rapidly expanded tumor masses were transferred and injected to mice for scale up.
(§3) Grouping: When the tumor grew to about 80-160 mm^3 on average, a grouping was performed, and a model control group and different doses of administration groups were set.
(§4) Administration: The mice were administrated via tail vein injection.
(§5) The weight of mice and the long diameter (a) and short diameter (b) of tumor mass were measured twice a week. The formula for the calculation of tumor volume (TV) is: TV=½×a×b^2.

[3] = tested on: A549, HuH-7, KB, LNcap, DU145 and T-47D tumor cell lines; assay: Inhibition of tumor cell expansion, CCK8 (CB-20B); format: cell-based, human
Description: Cell lines: A549 human lung cancer cells, HuH-7 human liver cancer cells, KB human oral epidermoid carcinoma cells, LNCaP human prostate cancer cells, DU145 human prostate cancer cells and T-47D human breast cancer cells
The cells were prepared in advance, digested with trypsin, collected and counted; diluted with a complete cell culture medium, A549 cells, HuH-7 cells, KB cells and DU145 cells were plated at a density of 2×10^4 cells/ml, T-47D cells were plated at a density of 1×10^5 cells/ml, and LNCaP cells were plated at a density of 6×10^4 cells/ml in 96-well plates; 100 μl of the diluted cell solution was added to each well; and negative control and blank control wells were set on each plate. The 96-well plates added with the cells were placed in an incubator at 37° C., 5% CO2 for culturing overnight.
The samples were diluted with a culture medium to desired concentrations (see Table 11). […]
as §1

[4] = tested on: KB, PC-9 and DU145 cell lines (CDX tumor models); assay: Pharmacodynamic study of CB-20B in CDX models; format: in vivo, BALB/c-nude mice; conditions: tail vein injection
Description: CB-20B lyophilized powder was weighed, dissolved with PBS and prepared into a sample mother solution, and the mother solution was diluted with a physiological saline for injection to a sample solution with a working concentration for later use.
Main cell lines: KB human oral epidermoid carcinoma cells, PC-9 human lung cancer cells and DU145 human prostate cancer cells.
as §2, with “collected,” for “collected and”, “and” for “and the cell solution was”
as §3, §4, §5

SMILES	inhibitory effect on growth and expansion of tumor cell lines ([1]; 72 hours, CCK-8)	IC50 compared between cell lines ([1]; Hela versus NCI-H460)	inhibitory effect in CDX tumor models (tumor volume) [2]	inhibitory effect on growth and expansion of tumor cell lines ([3]; 72 hours, CCK-8)	IC50 compared between cell lines ([3]; T-47D, LNcap, KB, HuH-7 and DU145 versus A549)	inhibitory effect in CDX tumor models (tumor volume) [4]
CCCC(=O)N[C@@H](Cc1ccccc1)C(=O)N[C@H]1CSSC[C@@H](C(=O)N[C@H](C(=O)N[C@@H](CCCCNC(=O)[C@H](CCC(=O)O)NC(=O)CCOCCOCCOCCOCCNC(=O)[C@H](CCC(=O)O)NC(=O)[C@H](CSC2CC(=O)N(CCCCCC(=O)N[C@H](C(=O)NC(CCCNC(N)=O)C(=O)Nc3ccc(COC(=O)N(C)[C@H](C(=O)N[C@H](C(=O)N(C)[C@@H]([C@@H](C)CC)[C@@H](CC(=O)N4CCC[C@H]4[C@H](OC)[C@@H](C)C(=O)N[C@H](C)[C@@H](O)c4ccccc4)OC)C(C)C)C(C)C)cc3)C(C)C)C2=O)NC(=O)CC[C@H](NC(=O)c2ccc(NCc3cnc4[nH]c(N)nc(=O)c4n3)cc2)C(=O)O)C(N)=O)[C@@H](C)O)NC(=O)[C@H]([C@@H](C)O)NC(=O)[C@H](CCCCN)NC(=O)[C@H](Cc2c[nH]c3ccccc23)NC(=O)[C@H](Cc2ccc(O)cc2)NC1=O (stereo partly drawn) [CB-18G]	has an inhibitory effect	significantly lower	good inhibitory effect			
CC[C@H](C)[C@@H]([C@@H](CC(=O)N1CCC[C@H]1[C@H](OC)[C@@H](C)C(=O)N[C@H](C)[C@@H](O)c1ccccc1)OC)N(C)C(=O)[C@@H](NC(=O)[C@H](C(C)C)N(C)C(=O)OCc1ccc(NC(=O)[C@H](CCCNC(N)=O)NC(=O)[C@@H](NC(=O)CCCCCN2C(=O)CC(SC[C@H](NC(=O)[C@H](CC(=O)O)NC(=O)[C@H](CC(=O)O)NC(=O)Cc3ccc(CNC(=O)NCCCC[C@H](NC(=O)N[C@@H](CCC(=O)O)C(=O)O)C(=O)O)cc3)C(=O)N[C@@H](CCCCNC(=O)CC[C@H](NC(=O)c3ccc(NCc4cnc5[nH]c(N)nc(=O)c5n4)cc3)C(=O)O)C(N)=O)C2=O)C(C)C)cc1)C(C)C (stereo partly drawn) [CB-20B] (I: V[Cit][PABC][NMeV]V[Dil][Dolaproine]-X1 / II: {EuK-CO}-[X2]DDCK([γGlu-Pteroyl])-NH2; linker I:N-II:4 via X3)				has an inhibitory effect	significantly lower	good inhibitory effect

From patent publication US20220175761A1, “BI-LIGAND DRUG CONJUGATE AND USE THEREOF” (COHERENT BIOPHARMA (SUZHOU), LIMITED, priority 2019, published 2022)
